Results taken from the NIST ThermoML archive (doi:10.1016/j.fluid.2010.02.020).
Several values for one entry are separate records, joined by “and”; a condition that tells them apart may be missing. Identical values can stand only once.

Settings: for mass density: 101.33 kPa, Liquid, Vibrating tube method; for surface tension liquid-gas: Pendant drop shape

CCCn1cc[n+](C)c1.O=S(=O)([N-]S(=O)(=O)C(F)(F)F)C(F)(F)F
Settings | mass density [kg/m3] | surface tension liquid-gas [mN/m]
293.15 K | 1480.5 | –
303.15 K | 1470.8 | –
312.9 K | – | 32.5
313.15 K | 1461.1 | –
323.15 K | 1451.5 | –
333.15 K | 1441.9 | –
333.6 K | – | 31.5
343.15 K | 1432.4 | –
353.15 K | 1422.9 | –
353.9 K | – | 30.2
363.15 K | 1413.5 | –
373.15 K | 1404 | –
373.5 K | – | 28.8
374.2 K | – | 29.1
383.15 K | 1394.5 | –
393.15 K | 1384.9 | –
393.5 K | – | 29.4
394.5 K | – | 28
403.15 K | 1375.3 | –
413.15 K | 1365.6 | –
413.6 K | – | 28.2
414.9 K | – | 27.1
423.15 K | 1355.8 | –
433.15 K | 1345.9 | –
433.3 K | – | 27.6
435.2 K | – | 26.3
443.15 K | 1335.9 | –
453.15 K | 1325.8 | –
453.2 K | – | 26.8
455.5 K | – | 26.1
463.15 K | 1315.6 | –
473 K | – | 24.4
473.15 K | 1305.1 | –
475.7 K | – | 24.6

CCn1cc[n+](C)c1.O=S(=O)([N-]S(=O)(=O)C(F)(F)F)C(F)(F)F
Settings | mass density [kg/m3] | surface tension liquid-gas
293.15 K | 1525 | –
303.15 K | 1515.1 | –
313 K | – | 35.2 mN/m
313.15 K | 1505.3 | –
313.2 K | – | 33.8 mN/m and 34.7 mN/m
323.15 K | 1495.5 | –
332.7 K | – | 34.2 mN/m
333.15 K | 1485.8 | –
333.3 K | – | 33.6 mN/m
343.15 K | 1476.1 | –
352.4 K | – | 33.4 mN/m
353.15 K | 1466.4 | –
353.4 K | – | 33.4 mN/m
363.15 K | 1456.7 | –
372.7 K | – | 32.5 mN/m
373.15 K | 1447 | –
373.2 K | – | 31.5 mN/m
383.15 K | 1437.2 | –
392.9 K | – | 31.4 mN/m
393.15 K | 1427.4 | –
393.2 K | – | 31.1 mN/m
403.15 K | 1417.5 | –
412.8 K | – | 30.5 mN/m
413.1 K | – | 30.1 mN/m
413.15 K | 1407.5 | –
423.15 K | 1397.5 | –
432.5 K | – | 29.6 mN/m
433.15 K | 1387.3 | –
443.15 K | 1377 | –
452.7 K | – | 27.3 mN/m
453 K | – | 28.7 mN/m
453.15 K | 1366.6 | –
463.15 K | 1356 | –
472.5 K | – | 25.7 mN/m
472.7 K | – | 26.4 mN/m
473.15 K | 1345.2 | –
512.6 K | – | 24.6 mN/m
532.2 K | – | 23.7 mN/m

CCCCCCCCCCn1cc[n+](C)c1.O=S(=O)([N-]S(=O)(=O)C(F)(F)F)C(F)(F)F
Settings | mass density [kg/m3] | surface tension liquid-gas
293.15 K | 1284.9 | –
303.15 K | 1276 | –
313.15 K | 1267.4 | –
313.2 K | – | 28.7 mN/m
313.3 K | – | 29.1 mN/m
314.1 K | – | 27.7 mN/m
323.15 K | 1258.8 | –
333 K | – | 26.7 mN/m
333.15 K | 1250.3 | –
333.3 K | – | 27 mN/m
333.6 K | – | 28.1 mN/m
343.15 K | 1241.8 | –
352.7 K | – | 27 mN/m
353.15 K | 1233.5 | –
353.2 K | – | 25.4 mN/m
353.3 K | – | 25.3 mN/m
363.15 K | 1225.1 | –
372.6 K | – | 26.3 mN/m
373.15 K | 1216.7 | –
373.3 K | – | 24.3 mN/m
373.4 K | – | 24.5 mN/m
383.15 K | 1208.4 | –
392.4 K | – | 24.9 mN/m and 24.6 mN/m
393.15 K | 1200 | –
393.3 K | – | 23.5 mN/m
403.15 K | 1191.7 | –
412.3 K | – | 23.5 mN/m
412.5 K | – | 23.6 mN/m
413.15 K | 1183.3 | –
413.5 K | – | 22.4 mN/m
423.15 K | 1174.8 | –
432.2 K | – | 22.9 mN/m
433 K | – | 22.2 mN/m
433.15 K | 1166.4 | –
433.3 K | – | 21.5 mN/m
443.15 K | 1157.8 | –
452.8 K | – | 22.2 mN/m
452.9 K | – | 21.2 mN/m
453.15 K | 1148.9 | –
453.2 K | – | 20.4 mN/m
463.15 K | 1140.2 | –
472.7 K | – | 21.1 mN/m
472.8 K | – | 19.1 mN/m
473.15 K | 1131.4 | –
473.3 K | – | 19.3 mN/m
492.5 K | – | 20.1 mN/m
493.1 K | – | 18.5 mN/m
513.8 K | – | 17.5 mN/m
533.2 K | – | 16.9 mN/m

CCCCCn1cc[n+](C)c1.O=S(=O)([N-]S(=O)(=O)C(F)(F)F)C(F)(F)F
Settings | mass density [kg/m3] | surface tension liquid-gas
293.15 K | 1408.1 | –
303.15 K | 1398.7 | –
312.7 K | – | 29.5 mN/m
313.15 K | 1389.4 | –
313.2 K | – | 30.5 mN/m
323.15 K | 1380.3 | –
333.15 K | 1371.2 | –
333.2 K | – | 28.3 mN/m
343.15 K | 1362.1 | –
353.15 K | 1353.1 | –
353.4 K | – | 27.3 mN/m
353.7 K | – | 27.2 mN/m
363.15 K | 1344 | –
373.15 K | 1335 | –
373.5 K | – | 26.3 mN/m
373.7 K | – | 26.6 mN/m
383.15 K | 1325.9 | –
393.15 K | 1316.8 | –
393.7 K | – | 24.7 mN/m and 25.6 mN/m
403.15 K | 1307.6 | –
413.15 K | 1298.4 | –
413.6 K | – | 24.6 mN/m
413.8 K | – | 23.5 mN/m
423.15 K | 1288.6 | –
433.15 K | 1279.7 | –
433.5 K | – | 22.6 mN/m
433.7 K | – | 23.7 mN/m
443.15 K | 1270.3 | –
453.15 K | 1260.8 | –
453.5 K | – | 21.7 mN/m
453.6 K | – | 22.8 mN/m
463.15 K | 1251.1 | –
473.15 K | 1241.3 | –
473.3 K | – | 21.1 mN/m
473.6 K | – | 21.7 mN/m
493 K | – | 21.6 mN/m
493.2 K | – | 20.8 mN/m
512.9 K | – | 20.1 mN/m

CCCCCCCCn1cc[n+](C)c1.O=S(=O)([N-]S(=O)(=O)C(F)(F)F)C(F)(F)F
Settings | mass density [kg/m3] | surface tension liquid-gas [mN/m]
293.15 K | 1326.5 | –
303.15 K | 1317.5 | –
313 K | – | 29.2
313.15 K | 1308.6 | –
313.2 K | – | 28.5
323.15 K | 1299.8 | –
332.6 K | – | 27.4
333.15 K | 1291.2 | –
333.3 K | – | 28.2
343.15 K | 1282.5 | –
352.8 K | – | 26.1
353.15 K | 1273.9 | –
353.8 K | – | 27.3
363.15 K | 1265.3 | –
372.8 K | – | 25.2
373.15 K | 1256.7 | –
373.6 K | – | 26.3
383.15 K | 1248.1 | –
392.9 K | – | 24
393.15 K | 1239.5 | –
393.6 K | – | 25.3
403.15 K | 1230.9 | –
412.9 K | – | 23.1
413.15 K | 1222.2 | –
413.4 K | – | 24.3
423.15 K | 1213.5 | –
432.8 K | – | 22.1
433.15 K | 1204.8 | –
433.3 K | – | 23.2
443.15 K | 1195.9 | –
452.5 K | – | 21.5
453.15 K | 1187 | –
453.4 K | – | 22.1
463.15 K | 1178 | –
472.4 K | – | 19.7
473.15 K | 1168.8 | –
473.6 K | – | 20.7
493 K | – | 20.1
512.6 K | – | 19.2
